Test results published in PubChem BioAssay AID1963837 (Molecular Pharmacology Branch, DTP, NCI, 2024).

Tested on: 843126-344-R-J1-PDC complex spheroid viability
Assay: Anticancer human tumor 843126-344-R-J1-PDC patient-derived melanoma cell line growth inhibition [POLQ]
Conditions: for IC50: curve of first compound; for viability, T/C: stronger effect = lower value; active = viability on the fitted dose curve at most 10% of control; inactive = the rest
Summary of the method: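 Growth inhibition in 3D: complex spheroids (tumor PDC, HUVEC, MSC) treated with POLQ inhibitor combinations; where Cmax unknown, highest tested concentration 10 microM, except SN-38 at 1 microM.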

[1] = second compound 0.0316 µM, first compound 0.0316 µM
[2] = second compound 0.0316 µM, first compound 0.1 µM
[3] = second compound 0.0316 µM, first compound 0.316 µM
[4] = second compound 0.0316 µM, first compound 1 µM
[5] = second compound 0.0316 µM, first compound 3.16 µM
[6] = second compound 0.0316 µM, first compound 10 µM
[7] = second compound 0.1 µM, first compound 0.0316 µM
[8] = second compound 0.1 µM, first compound 0.1 µM
[9] = second compound 0.1 µM, first compound 0.316 µM
[10] = second compound 0.1 µM, first compound 1 µM
[11] = second compound 0.1 µM, first compound 3.16 µM
[12] = second compound 0.1 µM, first compound 10 µM
[13] = second compound 0.316 µM, first compound 0.0316 µM
[14] = second compound 0.316 µM, first compound 0.1 µM
[15] = second compound 0.316 µM, first compound 0.316 µM
[16] = second compound 0.316 µM, first compound 1 µM
[17] = second compound 0.316 µM, first compound 3.16 µM
[18] = second compound 0.316 µM, first compound 10 µM
[19] = second compound 1 µM, first compound 0.0316 µM
[20] = second compound 1 µM, first compound 0.1 µM
[21] = second compound 1 µM, first compound 0.316 µM
[22] = second compound 1 µM, first compound 1 µM
[23] = second compound 1 µM, first compound 3.16 µM
[24] = second compound 1 µM, first compound 10 µM
[25] = second compound 3.16 µM, first compound 0.0316 µM
[26] = second compound 3.16 µM, first compound 0.1 µM
[27] = second compound 3.16 µM, first compound 0.316 µM
[28] = second compound 3.16 µM, first compound 1 µM
[29] = second compound 3.16 µM, first compound 3.16 µM
[30] = second compound 3.16 µM, first compound 10 µM
[31] = second compound 10 µM, first compound 0.0316 µM
[32] = second compound 10 µM, first compound 0.1 µM
[33] = second compound 10 µM, first compound 0.316 µM
[34] = second compound 10 µM, first compound 1 µM
[35] = second compound 10 µM, first compound 3.16 µM
[36] = second compound 10 µM, first compound 10 µM
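Throughout, for viability, T/C: spheroids exposed to drugs for seven days before readout.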

CC1COCCN1c1cc(C2(S(C)(=N)=O)CC2)nc(-c2ccnc3[nH]ccc23)n1 (stereo unspecified) + Nc1ccc(C#CCN(C(=O)Cc2ncc(C(F)(F)F)cc2C(F)(F)F)c2ccc(F)cc2)nn1
> 10 µM: IC50 (second compound 0.0316 µM) | IC50 (second compound 0.1 µM) | IC50 (second compound 1 µM) | IC50 (second compound 3.16 µM) | IC50 (second compound 10 µM)
9.88 µM: IC50 (second compound 0.316 µM)
inactive: viability, T/C [1] 101% | viability, T/C [2] 84.8% | viability, T/C [3] 86.6% | viability, T/C [4] 76.9% | viability, T/C [5] 72.7% | viability, T/C [6] 51.6% | viability, T/C [7] 84.8% | viability, T/C [8] 90.2% | viability, T/C [9] 88.8% | viability, T/C [10] 103% | viability, T/C [11] 76.1% | viability, T/C [12] 55.8% | viability, T/C [13] 88.4% | viability, T/C [14] 92.1% | viability, T/C [15] 82.3% | viability, T/C [16] 77.5% | viability, T/C [17] 70% | viability, T/C [18] 49.2% | viability, T/C [19] 96.2% | viability, T/C [20] 92.8% | viability, T/C [21] 86.3% | viability, T/C [22] 90.5% | viability, T/C [23] 76.3% | viability, T/C [24] 51.8% | viability, T/C [25] 89.9% | viability, T/C [26] 84% | viability, T/C [27] 89% | viability, T/C [28] 86.1% | viability, T/C [29] 69.8% | viability, T/C [30] 53.8% | viability, T/C [31] 94.6% | viability, T/C [32] 84% | viability, T/C [33] 81.5% | viability, T/C [34] 75.1% | viability, T/C [35] 65.2% | viability, T/C [36] 51.8%

Nc1ccn(C2OC(CO)C(O)C2(F)F)c(=O)n1 (stereo unspecified) + COC1C(OC(N)=O)C(O)C(Oc2ccc3c(O)c(NC(=O)c4ccc(O)c(CC=C(C)C)c4)c(=O)oc3c2C)OC1(C)C
< 0.0316 µM: IC50 (second compound 0.0316 µM) | IC50 (second compound 0.1 µM) | IC50 (second compound 0.316 µM) | IC50 (second compound 1 µM) | IC50 (second compound 3.16 µM) | IC50 (second compound 10 µM)
inactive: viability, T/C [1] 33.5% | viability, T/C [2] 34.9% | viability, T/C [3] 36.8% | viability, T/C [4] 36.1% | viability, T/C [5] 41.7% | viability, T/C [6] 34.7% | viability, T/C [7] 41.3% | viability, T/C [8] 36.5% | viability, T/C [9] 34.9% | viability, T/C [10] 37.8% | viability, T/C [11] 37.3% | viability, T/C [12] 33.7% | viability, T/C [13] 38.6% | viability, T/C [14] 36.4% | viability, T/C [15] 39.4% | viability, T/C [16] 32.9% | viability, T/C [17] 36.9% | viability, T/C [18] 33.4% | viability, T/C [19] 38.9% | viability, T/C [20] 36% | viability, T/C [21] 39.3% | viability, T/C [22] 31.7% | viability, T/C [23] 40% | viability, T/C [24] 35.7% | viability, T/C [25] 43.5% | viability, T/C [26] 34.6% | viability, T/C [27] 38% | viability, T/C [28] 30.8% | viability, T/C [29] 39.5% | viability, T/C [30] 31.2% | viability, T/C [31] 38.4% | viability, T/C [32] 37.8% | viability, T/C [33] 38% | viability, T/C [34] 32.8% | viability, T/C [35] 32% | viability, T/C [36] 32%

CNCc1ccc(-c2[nH]c3cc(F)cc4c3c2CCNC4=O)cc1 + Nc1ccc(C#CCN(C(=O)Cc2ncc(C(F)(F)F)cc2C(F)(F)F)c2ccc(F)cc2)nn1
> 10 µM: IC50 (second compound 0.0316 µM) | IC50 (second compound 0.1 µM) | IC50 (second compound 0.316 µM) | IC50 (second compound 1 µM) | IC50 (second compound 3.16 µM) | IC50 (second compound 10 µM)
inactive: viability, T/C [1] 104% | viability, T/C [2] 92.1% | viability, T/C [3] 100% | viability, T/C [4] 108% | viability, T/C [5] 98.5% | viability, T/C [6] 83.4% | viability, T/C [7] 96.4% | viability, T/C [8] 103% | viability, T/C [9] 101% | viability, T/C [10] 95% | viability, T/C [11] 94.3% | viability, T/C [12] 88.5% | viability, T/C [13] 95.8% | viability, T/C [14] 105% | viability, T/C [15] 97.3% | viability, T/C [16] 103% | viability, T/C [17] 94.4% | viability, T/C [18] 84.3% | viability, T/C [19] 103% | viability, T/C [20] 103% | viability, T/C [21] 95.9% | viability, T/C [22] 117% | viability, T/C [23] 102% | viability, T/C [24] 86.3% | viability, T/C [25] 92.6% | viability, T/C [26] 86.3% | viability, T/C [27] 95.2% | viability, T/C [28] 83.6% | viability, T/C [29] 98.2% | viability, T/C [30] 90.9% | viability, T/C [31] 91.3% | viability, T/C [32] 89.1% | viability, T/C [33] 91.9% | viability, T/C [34] 92.9% | viability, T/C [35] 91.5% | viability, T/C [36] 85.9%
